In patent EP3825318A1, “OXALAMIDO-SUBSTITUTED TRICYCLIC INHIBITORS OF HEPATITIS B VIRUS” (priority 2019, dated 2021):

These compounds were tested on HBV (assay: Anti-HBV activity in vitro: extracellular HBV DNA by qPCR in HepAD38 cells). Details: Hepatitis B virus, 96 hours incubation, extracellular HBV DNA by direct qPCR, read-out: HBV inh EC50.
Assay type: cell-based
Text: HepAD38 cell line (Ladner et al., Antimicrob Agents Chemother, 1997, 41, 1715-20) was used for HBV inhibition assays. HepAD38 is a subclone, derived from Hepatoblastoma cell line HepG2 (ATCC® Number: HB-8065™), that expresses HBV genome under the transcriptional control of a tetracycline-responsive promoter in a TET-OFF system: addition of tetracycline (TET) or doxycycline suppresses HBV replication, while its removal switches on the process allowing HBV viral particles release in the cell supernatant. HepAD38 cell line is maintained in DMEM/F12, supplemented with 10% of fetal bovine serum, 1% of glutamine, 1% of penicillin/streptomycin, 0.4 mg/ml G418 and 0,3 ug/ml tetracycline. For the HBV inhibition assay, doxycycline-free medium is used in order to allow virion production.
HBV inhibition activity in vitro was performed in 96 multiwell plates. During the initial (primary) screening, compounds were first tested in triplicates at concentrations of 0.02 µM, 0.1µM, 0.5µM and 1µM. For selected compounds, an 8-point dose-response curve was obtained using 1:2 serial dilutions (starting from 0.01µM, 0.1µM, 0.4µM or 5 µM, depending on the degree of inhibition observed during the primary screening). From the dose-response curves, half maximal effective concentration (EC50) could be calculated (see also below).
In more detail, compounds - typically dissolved in DMSO stock solutions - were diluted to 2x the final desired concentration in 100 µl of the above medium (without doxycycline) and plated in three replicates in the 96-well plates.
Simultaneously, HepAD38 cells - extensively pre-washed in tetracycline-free medium in order to induce HBV production - were suspended at 2^∗10^4 cells in 100 µl of tetracycline-free medium and added to each well of the plate, to yield a final assay volume of 200 µl DMSO - used for stock solutions and compounds dilutions - which was always present in the assays at a final concentration of 0.5%.
Plates were then incubated 96 hours at 37°C and then subjected to cell viability assays and extracellular HBV quantification, in order to evaluate both the cytotoxic potential and the antiviral activity of compounds. Cytotoxicity was assessed by a commercial fluorescence assay that measures the metabolic activity of cells, directly related to cell viability (Cell Titer Blue, Promega). Anti-HBV activity was evaluated by quantification of extracellular HBV DNA with direct qPCR. In particular, supernatant was collected and centrifuged for cell debris clarification, viral DNA was extracted from virions by addition of lysis buffer (1 mM 1,4-dithiothreitol, 0.2% sodium dodecyl sulphate) and incubated at 95°C for 10 min. Samples were then diluted 1:40 and real time PCR amplification was performed with SYBR green assay (Power SYBR™ Green PCR Master Mix-Thermo Fisher Scientific) and specific HBV primer (HBV-DF:5'-[…]-3' (SEQ ID No. 1), HBV-DR:5'-[…]-3' (SEQ ID No. 2)).
Antiviral activity data for each compound are reported as EC50 threshold value (see Table 1 legend). Excel and Graphpad Prism programs are typically used for data elaboration and EC50 calculation.
Work on `Cc1cc(NC(=O)c2c3c(c(Cl)n2C)S(=O)(=O)N[C@H]2CN(C(=O)C(=O)N[C@H](C)C(F)(F)F)C[C@H]2CO3)ccc1F` [Example E9, (3aR,10aR)-6-chloro-N-(4-fluoro-3-methylphenyl)-7-methyl-2-(2-oxo-2-(((R)-1,1,1-trifluoropropan-2-yl)amino)acetyl)-2,3,3a,4,10,10a-hexahydro-1H,7H-dipyrrolo[3,4-b:3',4'-f][1,4,5]oxathiazocine-8-carboxamide 5,5-dioxide] yielded an EC50 of under 500 nM.
`C[C@@H](NC(=O)C(=O)N1C[C@H]2COc3c(cn(C)c3C(=O)Nc3ccc(F)c(Cl)c3)S(=O)(=O)N[C@H]2C1)C(F)(F)F` [Example E1, (3aR,10aR)-N-(3-chloro-4-fluorophenyl)-7-methyl-2-(2-oxo-2-(((R)-1,1,1-trifluoropropan-2-yl)amino)acetyl)-2,3,3a,4,10,10a-hexahydro-1H,7H-dipyrrolo[3,4-b:3',4'-f][1,4,5]oxathiazocine-8-carboxamide 5,5-dioxide] showed an EC50 of under 500 nM.
With `C[C@@H](NC(=O)C(=O)N1C[C@H]2COc3c(c(Cl)n(C)c3C(=O)Nc3ccc(F)c(Cl)c3)S(=O)(=O)N[C@H]2C1)C(F)(F)F` [Example E5, (3aR,10aR)-6-chloro-N-(3-chloro-4-fluorophenyl)-7-methyl-2-(2-oxo-2-(((R)-1,1,1-trifluoropropan-2-yl)amino)acetyl)-2,3,3a,4,10,10a-hexahydro-1H,7H-dipyrrolo[3,4-b:3',4'-f][1,4,5]oxathiazocine-8-carboxamide 5,5-dioxide] the EC50 was under 500 nM.
For `C[C@@H](NC(=O)C(=O)N1C[C@H]2COc3c(c(Cl)n(C)c3C(=O)Nc3ccc(F)c(C(F)F)c3)S(=O)(=O)N[C@H]2C1)C(F)(F)F` [Example E7, (3aR,10aR)-6-chloro-N-(3-(difluoromethyl)-4-fluorophenyl)-7-methyl-2-(2-oxo-2-(((R)-1,1,1-trifluoropropan-2-yl)amino)acetyl)-2,3,3a,4,10,10a-hexahydro-1H,7H-dipyrrolo[3,4-b:3',4'-f][1,4,5]oxathiazocine-8-carboxamide 5,5-dioxide], the EC50 was under 500 nM.
`C[C@@H](NC(=O)C(=O)N1C[C@H]2COc3c(c(Cl)n(C)c3C(=O)Nc3ccc(F)c(C(F)(F)F)c3)S(=O)(=O)N[C@H]2C1)C(F)(F)F` [Example E8, (3aR,10aR)-6-chloro-N-(4-fluoro-3-(trifluoromethyl)phenyl)-7-methyl-2-(2-oxo-2-(((R)-1,1,1-trifluoropropan-2-yl)amino)acetyl)-2,3,3a,4,10,10a-hexahydro-1H,7H-dipyrrolo[3,4-b:3',4'-f][1,4,5]oxathiazocine-8-carboxamide 5,5-dioxide] was tested, and the EC50 was under 500 nM.
`C[C@@H](NC(=O)C(=O)N1C[C@H]2COc3c(c(Cl)n(C)c3C(=O)Nc3ccc(F)c(F)c3)S(=O)(=O)N[C@H]2C1)C(F)(F)F` [Example E6, (3aR,10aR)-6-chloro-N-(3,4-difluorophenyl)-7-methyl-2-(2-oxo-2-(((R)-1,1,1-trifluoropropan-2-yl)amino)acetyl)-2,3,3a,4,10,10a-hexahydro-1H,7H-dipyrrolo[3,4-b:3',4'-f][1,4,5]oxathiazocine-8-carboxamide 5,5-dioxide] was tested, and the EC50 was under 500 nM.
Work on `C[C@@H](NC(=O)C(=O)N1C[C@H]2COc3c(cn(C)c3C(=O)Nc3ccc(F)c(C(F)(F)F)c3)S(=O)(=O)N[C@H]2C1)C(F)(F)F` [Example E4, (3aR,10aR)-N-(4-fluoro-3-(trifluoromethyl)phenyl)-7-methyl-2-(2-oxo-2-(((R)-1,1,1-trifluoropropan-2-yl)amino)acetyl)-2,3,3a,4,10,10a-hexahydro-1H,7H-dipyrrolo[3,4-b:3',4'-f][1,4,5]oxathiazocine-8-carboxamide 5,5-dioxide] yielded an EC50 of under 500 nM.
For `C[C@@H](NC(=O)C(=O)N1C[C@H]2COc3c(cn(C)c3C(=O)Nc3ccc(F)c(C(F)F)c3)S(=O)(=O)N[C@H]2C1)C(F)(F)F` [Example E3, (3aR,10aR)-N-(3-(difluoromethyl)-4-fluorophenyl)-7-methyl-2-(2-oxo-2-(((R)-1,1,1-trifluoropropan-2-yl)amino)acetyl)-2,3,3a,4,10,10a-hexahydro-1H,7H-dipyrrolo[3,4-b:3',4'-f][1,4,5]oxathiazocine-8-carboxamide 5,5-dioxide], the EC50 was under 500 nM.
`C[C@@H](NC(=O)C(=O)N1C[C@H]2COc3c(cn(C)c3C(=O)Nc3ccc(F)c(F)c3)S(=O)(=O)N[C@H]2C1)C(F)(F)F` [Example E2, (3aR,10aR)-N-(3,4-difluorophenyl)-7-methyl-2-(2-oxo-2-(((R)-1,1,1-trifluoropropan-2-yl)amino)acetyl)-2,3,3a,4,10,10a-hexahydro-1H,7H-dipyrrolo[3,4-b:3',4'-f][1,4,5]oxathiazocine-8-carboxamide 5,5-dioxide] was tested, and the EC50 was under 500 nM.
